Test results: paper PMC6564044, “Exploring E-cadherin-peptidomimetics interaction using NMR and computational studies” (PLoS Computational Biology, 2019)
Where two headings read alike, the source gives them in different places. One block for each compound: values may come before it. Positions of bridges follow the written chain, without caps; N, C: chain ends.

How the values were obtained:
[1] = tested on: N-cadherin mediated processes; details: cited from earlier work
Source text: Beside its broad-ranging effects on physiological tissue organization, classical cadherin dysfunction is often correlated with cancer progression and metastasis. Despite Epithelial (E)- to Neural (N-) cadherin switching being considered a molecular hallmark of epithelial to mesenchymal transition of cancer cells, carcinomas and distal metastases often retain E-cadherin expression, as observed for instance in late stage tumors in epithelial ovarian cancer (EOC). In this context, targeting the E-cadherin adhesive interface with small molecules could have a therapeutic a ...

wt E-cadherin-EC1-EC2 [2] = assay: STD-NMR epitope mapping with wt E-cadherin-EC1-EC2; format: binding, human
Source text: STD-NMR is a consolidated technique based on Overhauser effect that is used to study the interactions between small ligands and macromolecules. The method relies on the selective irradiation of the protein, which allows magnetization to be transferred to the bound ligand (which is in great excess in solution compared to the protein concentration). The saturated ligand is displaced in solution due to the binding equilibrium and the observation of the ligand signals in the NMR spectrum provides an indication of the interaction. Those ligand protons that are nearest to the protein are more likely to become highly saturated, and therefore show the strongest signal in the mono-dimensional STD spectrum. Owing to the efficiency of the saturation process, the modulation of the ligand signal intensity is used as an epitope-mapping method to describe the target-ligand interactions. In fact, the intensity of the STD signal (expressed as absolute STD percentage) reflects the proximity of the ligand to the protein surface. Therefore, the group epitope mapping obtained provides information about the nature of the chemical moieties of the ligand that are crucial for molecular recognition in the binding site. We also used the STD amplification factors (STD-AF) to derive the dissociation constant (KD) of the ligand-protein complexes. Moreover, we performed tr-NOESY experiments in order to determine the preferred bound conformation of the ligands.
(§1) STD–NMR and tr-NOESY spectra were acquired in 20 mM phosphate buffer at pH 7.4 (with 150 mM NaCl and 1 mM CaCl2) and 40 μM EC1-EC2 fragments of E-cadherin. In this condition, a monomeric form is predominant in solution [28]. We performed STD-NMR experiments at 283K, 290K and 298K since lowering the temperature helps to […] the rotational correlation time of the receptor and to increase the effective magnetization transfer. […] Furthermore, we also studied the binding modes of the ligands in the presence of the truncated mutant (E-cadherin-(Val3)-EC1-EC2).
(§2) The spectra were acquired with a Bruker Avance 600 MHz instrument at 283, 290 and 298 K, in a 3 mm NMR tube and in the phosphate buffer previously described (200 μL).
(§3) The interaction between ligands and isolated proteins was detected using trNOESY, trROESY and STD experiments. In trNOESY and trROESY experiments, water suppression was achieved by use of an excitation sculpting pulse sequence. In STD experiments water suppression was achieved by using the WATERGATE 3-9-19 pulse sequence.
(§4) The on-resonance irradiation of the protein was kept at -0.05 ppm. Off-resonance irradiation of the protein was applied at 200 ppm, where no protein signals were visible. Selective presaturation of the protein was achieved by a train of Gauss shaped pulses of 49 ms length each. The total length of the saturation train was 2.94 s.
(§5) All the experiments were conducted with the first two domains (EC1-EC2) of wt E–cadherin (Molecular Weight EC1-EC2 construct = 23 KDa) and with the construct lacking the first two residues (E-cadherin-(Val3)-EC1-EC2), with a ligand-protein ratio of 80:1.
Since calcium ions are important to rigidify the EC1-EC2 linker region in the monomeric protein and considering that the use of phosphate buffer in the presence of CaCl2 may be critical, due to the limited solubility of CaHPO4, we studied the stability of the protein in phosphate buffer. We monitored the chemical shift variation in ^1H-^15N-HSQC experiment using the ^15N-labeled protein for 24 hours and we can confirm that the protein remains in the correct folding.

wt E-cadherin-EC1-EC2 [3] = assay: KD determination by STD-NMR titration (STD-AF isotherm); format: binding, human; details: STD-AF vs ligand concentration, two STD measurements per point; 283 K; protein 0.05 mM, ligand 2.0-16.0 mM
Source text: STD-NMR is a consolidated technique based on Overhauser effect that is used to study the interactions between small ligands and macromolecules. The method relies on the selective irradiation of the protein, which allows magnetization to be transferred to the bound ligand (which is in great excess in solution compared to the protein concentration). The saturated ligand is displaced in solution due to the binding equilibrium and the observation of the ligand signals in the NMR spectrum provides an indication of the interaction. […] In fact, the intensity of the STD signal (expressed as absolute STD percentage) reflects the proximity of the ligand to the protein surface. […]
In order to evaluate the interaction strength between E-cadherin and compound 1, we acquired a series of STD spectra at variable ligand concentrations. The STD amplification factor (STD-AF) can be calculated by multiplying the observed STD by the molar excess of the ligand over the protein [20, 21, 25–27], so that its values depend on the fraction of bound protein. […]
Supplementary file pcbi.1007041.s004.tif: S3 Fig Variation of STD-AF versus the increase of ligand 1 concentration in presence of E-cadherin interacting protons and the intensities observed are reported in the graph. We measured the KD value of compound 1 (S3 Fig) and 2 in the presence of E-cadherin by STD (for each point we performed two STD measurements). […]

[4] = tested on: E-cadherin-(Val3)-EC1-EC2; assay: STD-NMR epitope mapping with truncated E-cadherin; format: binding, human; details: for STD epitope with truncated E-cadherin: three temperatures, ligand-protein 80:1
Experimental: as §1, §2, §3, §4, §5

wt E-cadherin-EC1-EC2 [5] = assay: tr-NOESY bound conformation; format: binding, human; details: presence of E-cadherin
Experimental: as §1, §2, §3

[6] = Free ligand NMR conformational analysis (NOESY, VT-NMR); format: physicochemical; details: for hydrogen bonding of amide/exchangeable protons: free ligand, VT experiments (compound 1); for NOESY free-state conformation: phosphate buffer, 283 K and 298 K
Experimental: NMR spectroscopy experiments were performed at 283K and 298K on Bruker Avance 400 and 600 MHz spectrometers. All proton and carbon chemical shifts were assigned unambiguously and the assignments are reported in S1–S4 Tables. The NMR experiments were carried out in an aqueous phosphate (20 mM) buffer pH = 7 with 150 mM NaCl and 1 mM CaCl2 in order to observe amide protons with 10% D2O. Two-dimensional experiments (TOCSY, NOESY, ROESY and HSQC) were carried out on samples at a concentration range of 3–6 mM. NOESY experiments were performed with a mixing time of 200 and 700 ms.
In order to obtain clear spectra, the water signal suppression was achieved by using excitation sculpting sequence from Bruker library (DPFGSE, Double Pulse Field Gradient Spin Echo).
The conformations of the peptidomimetics were analysed with respect to hydrogen bonding of amide protons (VT-NMR spectroscopy) and NOE contacts.

E-cadherin-EC1-EC2 = details: mutant EC1-EC2 lacking Asp1-Trp2 (PDB 4ZTE) or intact EC1-EC2 as stated, cited from earlier work
Source text: Recently, we reported the first library of small peptidomimetic molecules targeting the strand-swapped dimer interfaces of E- and N-cadherin. These compounds are mimics of the tetrapeptide sequence Asp1-Trp2-Val3-Ile4 (DWVI) of the adhesion arm, modified by replacing the central dipeptide unit (WV) with various scaffolds, all of them bearing a benzyl group that is intended to mimic the indole moiety of Trp2.

[7] = 283, 290 and 298 K, wt E-cadherin-EC1-EC2
[8] = 283 K, wt E-cadherin-EC1-EC2, ligand-protein 80:1
[9] = 290 K, wt E-cadherin-EC1-EC2, ligand-protein 80:1
[10] = VT-NMR, phosphate 20 mM, pH 7, 10% D2O

Compound: Ac-CHAVC-NH2 (disulfide 1-5 (inferred)) [ADH-1]
reported activity [1]: anti-angiogenic agent able to cause cell apoptosis

Kd (wt E-cadherin-EC1-EC2 [3]): > 20 mM
Compound: CCC(C)C(NC(=O)C1CCC2CCN(Cc3ccccc3)CC(NC(=O)C(N)CC(=O)O)C(=O)N21)C(N)=O.O=C(O)C(F)(F)F (stereo not shown) [compound 2]
absolute STD % of aromatic protons (wt E-cadherin-EC1-EC2 [2]; [7]): about 0.2%
absolute STD % of NH19 (wt E-cadherin-EC1-EC2 [2]; 283 K, 40 μM protein, 20 mM phosphate pH 7.4, 150 mM NaCl, 1 mM CaCl2, ligand-protein 80:1): 2.078%
absolute STD % of C-terminal amidic NH2 (wt E-cadherin-EC1-EC2 [2]; [8]): 0.2%
absolute STD % of scaffold H4/H6 (wt E-cadherin-EC1-EC2 [2]; [8]): 0.265%
STD signal of scaffold H4 and H6 (wt E-cadherin-EC1-EC2 [2]; 290 K, wt E-cadherin-EC1-EC2): not detectable
absolute STD % of C-terminal amidic NH2 (wt E-cadherin-EC1-EC2 [2]; [9]): 0.463%
absolute STD % of NH19 (wt E-cadherin-EC1-EC2 [2]; [9]): 1.441%
protons observable in STD spectrum (wt E-cadherin-EC1-EC2 [2]; 298 K, wt E-cadherin-EC1-EC2): only the aromatic protons and the amidic NH2 (0.806%) are observable in the STD spectrum
absolute STD % of C-terminal amidic NH2 (wt E-cadherin-EC1-EC2 [2]; 298 K, wt E-cadherin-EC1-EC2, ligand-protein 80:1): 0.806%
STD epitope with truncated E-cadherin ([4]; E-cadherin-(Val3)-EC1-EC2): the only protons that are involved in the interaction are the aromatic ones
tr-NOESY bound conformation / contacts (wt E-cadherin-EC1-EC2 [5]): no long range interactions were detected
hydrogen bonding of amide/exchangeable protons [6]: the exchangeable protons are not involved in intra-molecular hydrogen bond formation
NOESY free-state conformation [6]: did not show any significant long range NOE contact typical of a preferred conformation
X-ray binding / co-crystallization (E-cadherin-EC1-EC2): attempts to co-crystallize both compounds 1 and 2 with intact E-cadherin-EC1-EC2 did not yield results

Kd (wt E-cadherin-EC1-EC2 [3]): > 20 mM
binding affinity to truncated vs wt E-cadherin ([4]; E-cadherin-(Val3)-EC1-EC2 vs wt, 283 K): weaker binding affinity
Compound: CCC(C)C(NC(=O)CC1NC(=O)C(CNC(=O)C(N)CC(=O)O)N(Cc2ccccc2)C1=O)C(=O)NC(C)(C)C.O=C(O)C(F)(F)F (stereo not shown) [compound 1]
STD interaction of aromatic moiety (wt E-cadherin-EC1-EC2 [2]; [7]): interacts at all the temperatures with similar strength
STD epitope changes (NH10, NH1, Ile NH) (wt E-cadherin-EC1-EC2 [2]; 290 K, wt E-cadherin-EC1-EC2): NH10 STD signal disappears, NH1 decreases in intensity and the signal of the amidic Ile proton appears
STD epitope, NHIle (wt E-cadherin-EC1-EC2 [2]; 298 K, wt E-cadherin-EC1-EC2): NHIle signal replaces those of NH1 and NH10
STD epitope, NH1 and NH10 (wt E-cadherin-EC1-EC2 [2]; lowest temperature (283 K), wt E-cadherin-EC1-EC2): strong interactions at the lowest temperature
STD interaction of Ile backbone NH (wt E-cadherin-EC1-EC2 [2]; temperature dependence, wt E-cadherin-EC1-EC2): seems to interact only at a higher temperature
STD epitope with truncated E-cadherin ([4]; E-cadherin-(Val3)-EC1-EC2): only the aromatic protons are able to interact with the protein
N-terminal Asp amine signal in STD ([4]; lower amount of D2O, E-cadherin-(Val3)-EC1-EC2): the N-terminal amine of the Asp residue of the ligand can be observed
tr-NOESY bound conformation / contacts (wt E-cadherin-EC1-EC2 [5]): in the bound form compound 1 adopts an extended conformation
Δδ/ΔT of NH10 ([6]; VT-NMR, phosphate 20 mM, pH 7, 150 mM NaCl, 1 mM CaCl2, 10% D2O): 4.67 ppb*10^3
Δδ/ΔT of NH1 [6, 10]: 8.33 ppb*10^3
Δδ/ΔT of NHIle [6, 10]: 7.67 ppb*10^3
Δδ/ΔT of NHtBu [6, 10]: 7.33 ppb*10^3
hydrogen bonding of amide/exchangeable protons [6]: NH10 is the only one that could be engaged in an inter-molecular hydrogen bond
NOESY free-state conformation [6]: equilibrium between different conformations
X-ray binding / co-crystallization (E-cadherin-EC1-EC2): binds to a dimeric conformation of E-cadherin, the so-called ‘X-dimer’
X-ray binding / co-crystallization (E-cadherin-EC1-EC2; listed as compounds 1): attempts to co-crystallize both compounds 1 and 2 with intact E-cadherin-EC1-EC2 did not yield results
